Reference: patent US6737383B1, “Herbicidal oxadiazolidines” (priority 1999, dated 2004)

Experiments:
surinam grass = assay: Test D surinam grass; type: in vivo, Brachiaria decumbens; details: Preemergence, 0 to 100 scale
Procedure, shortened: (§1)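 Values are visual plant-response ratings (0 no injury, 100 complete control) recorded 14 to 21 days after herbicide treatment, using a non-phytotoxic solvent mixture containing surfactant. Preemergence applications went to the surface of pots holding freshly sown seed in sandy loam.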

velvetleaf = assay: Test B pre/postemergence velvetleaf; type: in vivo, Abutilon theophrasti; details: for Velvetleaf plant response rating (0 to 10 scale): 0 is no effect; for Plant response rating, Velvetleaf: Rate 250 g/ha
Procedure, shortened: (§2)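 Herbicidal effect was estimated by eye on a ten-point control scale after plants spent twelve to sixteen days in a greenhouse following soil or foliar treatment. Foliar sprays targeted plants at one to four leaves; all doses were formulated in a non-phytotoxic solvent with surfactant.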

winter barley = assay: Test E winter barley; type: in vivo, Hordeum vulgare; details: Preemergence
blackgrass = assay: Test E blackgrass; type: in vivo, Alopecurus myosuroides; details: Preemergence
winter wheat [1] = assay: Test E winter wheat; type: in vivo, Triticum aestivum; details: Preemergence
common pursiane = assay: Test D common purslane; type: in vivo, Portulaca oleracea
Procedure, shortened: as §1

green foxtail = assay: Test E green foxtail; type: in vivo, Setaria viridis; details: Preemergence
smallflower flatsedge = assay: Test B flood test smallflower flatsedge; type: in vivo, Cyperus difformis
Procedure, shortened: (§3)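 Read-out is a visual response score from 0 (no effect) to 10 (complete control), assigned by comparison with untreated controls. Treatment was applied at the 2-leaf stage, and plants stayed in the greenhouse for twelve to sixteen days before scoring.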

wild oat = assay: Test E wild oat; type: in vivo, Avena fatua; details: Preemergence
Spanishneedles = assay: Test D Spanishneedles; type: in vivo, Bidens bipinnata; details: Preemergence, 0 to 100 scale
Procedure, shortened: as §1

winter wheat [2] = assay: Test E winter wheat; type: in vivo, Triticum aestivum; details: Postemergence
Procedure, shortened: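 Each compound, carried in a non-phytotoxic solvent blend including surfactant, was applied (postemergence: over the top of young plants at 1- to 4-leaf stage). Plants stayed in the greenhouse about 21 to 28 days before visual comparison with untreated controls.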

duck salad = assay: Test B flood test duck salad; type: in vivo, Heteranthera limosa
Procedure, shortened: as §3

Italian ryegrass = assay: Test E Italian ryegrass; type: in vivo, Lolium multiflorum; details: Preemergence
soybean = assay: Test B pre/postemergence soybean; type: in vivo, Glycine max
Procedure, shortened: as §2

[3] = Rate 125 g/ha, 0 no injury, 100 complete control
[4] = Postemergence, Rate 62 g/ha, scale 0 to 10, 0 is no effect, 10 is complete control
[5] = Postemergence, Rate 125 g/ha, scale of 0 to 10 where 0 is no effect and 10 is complete control
[6] = Preemergence, Rate 62 g/ha, scale 0 to 10 (0 no effect, 10 complete control)
[7] = Preemergence, Rate 125 g/ha, 10 is complete control
[8] = Preemergence, scale of 0 to 10 where 0 is no effect and 10 is complete control
[9] = Preemergence, Rate 500 g/ha, scale 0 (no effect) to 10 (complete control)
[10] = Postemergence, scale 0 to 10, 0 is no effect, 10 is complete control
[11] = Rate 500 g/ha, Postemergence, scale 0 to 10, 0 no effect, 10 complete control
[12] = Rate 500 g/ha, 0 to 100 scale where 0 is no effect and 100 is complete control
[13] = Rate 1000 g/ha, 0 to 100 scale where 0 is no effect and 100 is complete control
[14] = Rate 125 g/ha, Preemergence; 0 to 100 scale, 0 no injury, 100 complete control
[15] = Rate 500 g/ha, Preemergence; 0 to 100 scale
[16] = Rate 500 g/ha; Preemergence; 0 to 100 scale
[17] = Postemergence (flood test species), Rate 125 g/ha, scale of 0 to 10 where 0 is no effect and 10 is complete control
[18] = Pre-emergence, Rate 1000 g/ha, scale 0 to 10 (0 no effect, 10 complete control)
[19] = Rate 250 g/ha, Postemergence (flood test), scale 0 to 10, 0 is no effect, 10 is complete control
[20] = Rate 250 g/ha, headed Pre-emergence (flood test species), scale 0 to 10 (0 no effect, 10 complete control)
[21] = Rate 500 g/ha, headed Pre-emergence (flood test species), scale 0 to 10 (0 no effect, 10 complete control)
[22] = Rate 500 g/ha, listed under Postemergence (flood test species), scale 0 to 10, 0 no effect, 10 complete control
[23] = Rate 2000 g/ha, Pre-emergence (as headed), scale 0 to 10
[24] = Rate 250 g/ha, 0 to 100 scale (0 no effect, 100 complete control)
[25] = Rate 500 g/ha, 0 to 100 scale, 0 no effect, 100 complete control
[26] = Rate 1000 g/ha, Pre-emergence (as headed), scale 0 to 10
[27] = flood test, listed under Postemergence, Rate 250 g/ha, scale 0 to 10, 0 no effect, 10 complete control
[28] = Preemergence, Rate 125 g/ha, scale 0 to 10 (0 no effect, 10 complete control)
[29] = Preemergence, Rate 250 g/ha, scale of 0 to 10 where 0 is no effect and 10 is complete control
[30] = Rate 250 g/ha, Postemergence, scale 0 to 10, 0 is no effect, 10 is complete control
[31] = Rate 16 g/ha, 0 no injury, 100 complete control
[32] = Rate 32 g/ha, 0 no injury, 100 complete control
[33] = Rate 64 g/ha, 0 no injury, 100 complete control
[34] = Preemergence, Rate 500 g/ha, scale 0 to 10 (0 no effect, 10 complete control)
[35] = Rate 62 g/ha, Postemergence, scale of 0 to 10 where 0 is no effect and 10 is complete control
[36] = Rate 62 g/ha, 0 to 100 scale, 0 no effect, 100 complete control
[37] = Rate 125 g/ha, 0 to 100 scale (0 no effect, 100 complete control)
[38] = Rate 62 g/ha, Postemergence section, flood test species, scale of 0 to 10 where 0 is no effect and 10 is complete control

CC(C)N(C(=O)n1oc(=O)n(Cc2ccccc2)c1=O)c1ccccc1 [Compound 94]
80: Surinam grass plant response rating (surinam grass; [3]) | Plant response rating, Green foxtail (green foxtail; Rate 250 g/ha, 0 to 100 scale)
0: Velvetleaf plant response rating (velvetleaf; [4]) | Velvetleaf plant response rating (velvetleaf; [5]) | Velvetleaf plant response rating (velvetleaf; [6]) | Velvetleaf plant response rating (0 to 10 scale) (velvetleaf; [7]) | Plant response rating, Velvetleaf (velvetleaf; [8]) | Plant response rating, C. purslane (common pursiane; [14]) | Plant response rating, C. purslane (common pursiane; [16]) | S. Flatsedge plant response rating (smallflower flatsedge; [17]) | S. Flatsedge plant response rating (smallflower flatsedge; [4]) | S. Flatsedge plant response rating (smallflower flatsedge; [18]) | Plant response rating, S. Flatsedge (smallflower flatsedge; [19]) | S. Flatsedge plant response rating (smallflower flatsedge; [20]) | Plant response rating, S. Flatsedge (smallflower flatsedge; [21]) | Spanishneedles plant response rating (Spanishneedles; [3]) | Plant response rating, Spanishneedles (Spanishneedles; Rate 500 g/ha) | Plant response rating, Wheat (winter) (winter wheat [2]; [24]) | Plant response rating, Wheat (winter) (winter wheat [2]; Rate 1000 g/ha, 0 to 100 scale, 0 is no effect and 100 is complete control) | Plant response rating, Wheat (winter) (winter wheat [2]; [25]) | Ducksalad plant response rating (duck salad; [17]) | Ducksalad plant response rating (duck salad; [4]) | Ducksalad plant response rating (duck salad; [20]) | Plant response rating, Ducksalad (duck salad; [21]) | Ducksalad plant response rating (duck salad; [26]) | Ducksalad plant response rating (duck salad; [23]) | Ducksalad plant response rating (duck salad; [27]) | Soybean plant response rating (soybean; [6]) | Plant response rating, Soybean (soybean; [28]) | Plant response rating, Soybean (soybean; [29]) | Soybean plant response rating (soybean; [9])
4: Plant response rating, Velvetleaf (velvetleaf; [10])
50: Plant response rating, Barley (winter) (winter barley; [12]) | Plant response rating, Barley (winter) (winter barley; [13]) | Plant response rating, Wild oat (wild oat; [13])
2: Ducksalad plant response rating (duck salad; [22])
3: Velvetleaf plant response rating (velvetleaf; [9])
8: S. Flatsedge plant response rating (smallflower flatsedge; [23])
30: Plant response rating, Wheat (winter) (winter wheat [1]; Rate 250 g/ha, 0 to 100 scale) | Plant response rating, Wheat (winter) (winter wheat [1]; [12])
5: Soybean plant response rating (soybean; [4]) | Soybean plant response rating (soybean; [5]) | Plant response rating, Soybean (soybean; [30]) | Soybean plant response rating (soybean; [11])
100: Plant response rating, Green foxtail (green foxtail; [13])
9: S. Flatsedge plant response rating (smallflower flatsedge; [22])
90: Plant response rating Surinam grass (surinam grass; Rate 500 g/ha) | Plant response rating, Green foxtail (green foxtail; [12])
40: Plant response rating, Barley (winter) (winter barley; Rate 250 g/ha, 0 to 100 scale) | Plant response rating, Wheat (winter) (winter wheat [1]; [13]) | Plant response rating, Wild oat (wild oat; [12]) | Plant response rating, I. Ryegrass (Italian ryegrass; Rate 250 g/ha, 0 to 100 scale)
60: Plant response rating, Blackgrass (blackgrass; Rate 250 g/ha, 0 to 100 scale) | Plant response rating, Blackgrass (blackgrass; [12]) | Plant response rating, Blackgrass (blackgrass; [13]) | Plant response rating, I. Ryegrass (Italian ryegrass; [12]) | Plant response rating, I. Ryegrass (Italian ryegrass; [13])
6: Velvetleaf plant response rating (velvetleaf; [11])
10: Plant response rating, C. purslane (common pursiane; [15])

CC(C)N(C(=O)n1oc(=O)n(C(C)C)c1=O)c1ccc(F)cc1F [Compound 109]
4: Soybean plant response rating (soybean; [35])
2: Velvetleaf plant response rating (velvetleaf; [5])
65: Plant response rating, Blackgrass (blackgrass; [37]) | Plant response rating, Blackgrass (blackgrass; Rate 250 g/ha, 0 to 100 scale)
10: Plant response rating, Velvetleaf (velvetleaf; [8]) | Velvetleaf plant response rating (velvetleaf; [34]) | Plant response rating, Barley (winter) (winter barley; [36]) | Plant response rating, Barley (winter) (winter barley; [37]) | Plant response rating, Wheat (winter) (winter wheat [1]; [12]) | Plant response rating, Spanishneedles (Spanishneedles; [32]) | Spanishneedles plant response rating (Spanishneedles; [33]) | Spanishneedles plant response rating (Spanishneedles; [3])
8: S. Flatsedge plant response rating (smallflower flatsedge; [18]) | S. Flatsedge plant response rating (smallflower flatsedge; [23]) | Plant response rating, Soybean (soybean; [29])
80: Plant response rating, Wild oat (wild oat; [12])
70: Plant response rating, I. Ryegrass (Italian ryegrass; [12])
55: Plant response rating, Wheat (winter) (winter wheat [1]; Rate 250 g/ha, 0 to 100 scale) | Plant response rating, C. purslane (common pursiane; [15]) | Plant response rating, Wheat (winter) (winter wheat [2]; Rate 125 g/ha, 0 to 100 scale)
30: Plant response rating Surinam grass (surinam grass; [32]) | Plant response rating, Blackgrass (blackgrass; [36]) | Plant response rating, Wheat (winter) (winter wheat [1]; [37]) | Plant response rating, Wild oat (wild oat; [37]) | Plant response rating, Spanishneedles (Spanishneedles; Rate 500 g/ha)
100: Plant response rating Surinam grass (surinam grass; Rate 250 g/ha) | Plant response rating Surinam grass (surinam grass; Rate 500 g/ha) | Plant response rating, Green foxtail (green foxtail; Rate 250 g/ha, 0 to 100 scale) | Plant response rating, I. Ryegrass (Italian ryegrass; [37]) | Plant response rating, I. Ryegrass (Italian ryegrass; Rate 250 g/ha, 0 to 100 scale)
6: Plant response rating, Velvetleaf (velvetleaf; [10]) | Velvetleaf plant response rating (velvetleaf; [11]) | Ducksalad plant response rating (duck salad; [23]) | Soybean plant response rating (soybean; [5])
1: Ducksalad plant response rating (duck salad; [26])
50: Plant response rating, Green foxtail (green foxtail; [36])
5: Velvetleaf plant response rating (velvetleaf; [6]) | Plant response rating, Barley (winter) (winter barley; [12])
9: Soybean plant response rating (soybean; [34])
20: Plant response rating, Barley (winter) (winter barley; Rate 250 g/ha, 0 to 100 scale) | Plant response rating, Wheat (winter) (winter wheat [1]; [36]) | Plant response rating, Wild oat (wild oat; [36]) | Plant response rating, I. Ryegrass (Italian ryegrass; [36])
98: Surinam grass plant response rating (surinam grass; [3])
7: Velvetleaf plant response rating (0 to 10 scale) (velvetleaf; [7]) | Plant response rating, Soybean (soybean; [28]) | Plant response rating, Soybean (soybean; [30]) | Soybean plant response rating (soybean; [11])
85: Surinam grass plant response rating (surinam grass; [33]) | Plant response rating, Green foxtail (green foxtail; [37]) | Plant response rating, Green foxtail (green foxtail; [12])
90: Plant response rating, Blackgrass (blackgrass; [12])
0: Plant response rating Surinam grass (surinam grass; [31]) | Velvetleaf plant response rating (velvetleaf; [35]) | Plant response rating, C. purslane (common pursiane; Rate 16 g/ha; Preemergence; 0 to 100 scale, 0 no injury, 100 complete control) | Plant response rating, C. purslane (common pursiane; Rate 32 g/ha; Preemergence; 0 to 100 scale, 0 no injury, 100 complete control) | Plant response rating, C. purslane (common pursiane; Rate 64 g/ha, Preemergence; 0 to 100 scale, 0 no injury, 100 complete control) | Plant response rating, C. purslane (common pursiane; [14]) | Plant response rating, C. purslane (common pursiane; Rate 250 g/ha; Preemergence; 0 to 100 scale) | Plant response rating, C. purslane (common pursiane; [16]) | S. Flatsedge plant response rating (smallflower flatsedge; [17]) | S. Flatsedge plant response rating (smallflower flatsedge; [38]) | Plant response rating, S. Flatsedge (smallflower flatsedge; [19]) | S. Flatsedge plant response rating (smallflower flatsedge; [20]) | Plant response rating, S. Flatsedge (smallflower flatsedge; [21]) | S. Flatsedge plant response rating (smallflower flatsedge; [22]) | Plant response rating, Spanishneedles (Spanishneedles; [31]) | Plant response rating, Wheat (winter) (winter wheat [2]; Rate 62 g/ha, 0 to 100 scale) | Plant response rating, Wheat (winter) (winter wheat [2]; [25]) | Ducksalad plant response rating (duck salad; [17]) | Ducksalad plant response rating (duck salad; [38]) | Ducksalad plant response rating (duck salad; [20]) | Plant response rating, Ducksalad (duck salad; [21]) | Ducksalad plant response rating (duck salad; [22]) | Ducksalad plant response rating (duck salad; [27]) | Soybean plant response rating (soybean; [6])
75: Plant response rating, Wheat (winter) (winter wheat [2]; [24])
